{
  "source": "patent US20100298348A1",
  "about": "“Method of Decreasing Ubiquitylated Protein Levels” (priority 2009, published 2010)",
  "key": {"3xTg-AD mice": {"test_system": "3xTg-AD mice", "test": "Morris Water Maze in 3xTg-AD mice", "type": "in vivo, mouse", "details": "2 months; for Morris Water Maze crosses over former platform location, retention testing / Morris Water Maze latency, retention testing: 3xTg-AD mice, 5 mg/kg/day", "protocol": "3xTg-AD mice of approximately one year of age were treated for 2 months with ST101. An average dose of 5 mg/kg/day was administered in drinking water (calculated dose, based on mean water consumption). Behavioral effects were tested by assessing performance on the Morris Water Maze. Biochemical effects were examined by measuring brain content of Aβ and APP by ELISA and Western Blot.\nBehavioral Effects: Performance of 3xTg-AD Mice in the Morris Water Maze (MWM), adapted from Roozendaal et al., Proc. Natl. Acad. Sci. U.S.A. 100: 1328-1333 (2003).\nThe MWM tests both spatial memory (i.e. hippocampus dependent) and cued learning (i.e. non-hippocampal) in rodents. The maze is a circular tank filled with opaque water. Mice are placed in the water and must swim to find and escape onto a platform submerged 1.5 cm beneath the surface of the water. The time (in seconds) required to find the platform is recorded. Animals rely on visual cues in the room containing the tank in order to find the platform on successive challenges. Training was conducted daily for seven consecutive days.\nRetention of training was assessed twice, 24 and 72 hours after the final training trial. Animals were subjected to a 60-second free swim in the tank with the platform removed. Parameters measured included (1) latency: time required to reach the former platform location and (2) crosses: the number of times the animal swam across the former platform location."}, "APP [1]": {"test_system": "APP", "test": "Western blot of APP and C-terminal fragments in 3xTg-AD mouse brain", "type": "in vivo", "details": "5 mg/kg/day", "protocol": "To attempt to determine at what part in the Aβ processing/release pathway ST101 may be active, a series of Western blot analyses of brain extracts from the same mice were conducted. These Westerns blots examined intact APP as well as products of its post-translational processing and subsequent degradation.\nFIG. 4 is a Western blot that depicts APP C-terminal fragments detected by antibody CT20 in the brains of ST101-treated (S) 3xTg-AD mice, relative to untreated (C) 3xTg mice-AD.\nFIG. 5 is a Western blot that depicts APP and degradation fragments detected by antibody CT20 in the brains of ST101-treated (S) 3xTg-AD mice, relative to untreated (C) 3xTg-AD mice. “CT20” stands for full length APP species, and “Actin” stands for anti-beta-actin antibody as a protein loading control.\nFIGS. 10A and 10B are Western blots that depict APP carboxy-terminal fragments detected by antibody CT20 in the brains of ST101-treated (T in FIG. 10A, S in FIG. 10B) 3xTg-AD mice, relative to untreated (C) 3xTg-AD mice. FIG. 10B is from a separate experiment that used the same brain extract used in the experiment for FIG. 10A. Animals were approximately 14.5 months old at sacrifice after 2.5 months of treatment with ST101 at 5 mg/kg/day in drinking water. * denotes a control animal with low levels of CTFs.\nFIGS. 10C and 10D are Western blots that depict APP carboxy-terminal fragments detected by an APP C-terminal antibody (Eptitomics #: 15654-1) in the brains of ST101-treated (S) 3xTg-AD mice, relative to untreated (C) 3xTg-AD mice. FIG. 10D is a lighter exposure of the Western blot in FIG. 10C. Animals were approximately 14.5 months old at sacrifice after 2.5 months of treatment with ST101 at 5 mg/kg/day in drinking water.\nBrain extracts from 12-month-old 3xTg-AD mice that had been treated with ST101 (S) at 5/mg/kg/day in drinking water over 2 months were analyzed in Western blots using a C-terminal APP antibody (CT-20 Calbiochem)."}, "sAPP-beta": {"test_system": "sAPP-beta", "test": "Western blot of sAPP-beta in 3xTg-AD mouse brain", "type": "in vivo", "details": "3xTg-AD mice ~14.5 months old, 5 mg/kg/day in drinking water, 2 months as printed", "protocol": "FIG. 10B describes a reduction of fragment C99. C99 is created by BACE cleavage which leads to release of soluble APP, specifically sAPP-beta. […] The Western blot was obtained using an sAPP-beta specific antibody in brain extracts from ST101 treated 3×TG-AD mice (S) versus control mice (C). Animals were approximately 14.5 months old at sacrifice after 2 months of treatment with ST101 at 5 mg/kg/day in drinking water."}, "APP [2]": {"test_system": "APP", "test": "Western blot of APP fragments in cynomolgus monkey hippocampus, 9-month study", "type": "in vivo", "details": "male cynomolgus monkeys, 9 months oral", "protocol": "(§1) Male cynomolgus monkeys were treated for 9 months with 0, 10, 30 or 100 mg/kg/day ST101 with once daily oral drug administration. Hippocampal brain samples were analyzed in Western blots and ELISAs for APP fragments and Aβ. […] Reductions in a ˜55-kDa fragment were also seen with treatment in these groups. Black outlines depict image level enhancement in Adobe Photoshop CS4, to better visualize weak signals. […] However, long exposures reveal the presence of the 17-kDa APP fragment only in treated monkeys (antibody CT20, Calbiochem). This fragment was not detected in either the 30 or 10 mg/kg/day ST101 groups. Error bars indicate SEM (standard error of the mean) and * indicates statistical significance versus control (p<0.05). (S: ST101-treated animals, versus C: control animals)."}, "BACE": {"test_system": "BACE", "test": "Western blot of BACE in cynomolgus monkey hippocampus", "type": "in vivo", "details": "male cynomolgus monkeys, 9 months oral, 100 mg/kg/day", "protocol": "as §1"}, "ADAM10": {"test_system": "ADAM10", "test": "Western blot of ADAM10 in cynomolgus monkey hippocampus", "type": "in vivo", "details": "male cynomolgus monkeys, 9 months oral, 100 mg/kg/day", "protocol": "as §1"}, "acetylated alpha-tubulin": {"test_system": "acetylated alpha-tubulin", "test": "Western blot of acetylated alpha-tubulin in cynomolgus monkey hippocampus", "type": "in vivo", "details": "cynomolgus monkeys of Example 19, hippocampal brain samples", "source_text": "The effects on tubulin were confirmed in the group of cynomolgus monkeys described in example 19."}, "SAMP8 mouse": {"test_system": "SAMP8 mouse", "details": "cited from earlier work"}, "[3]": {"test_system": "long-term potentiation (LTP)", "details": "cited from earlier work"}, "[4]": {"details": "3xTg-AD mice ~12 months old, 2 months, antibody CT20"}},
  "data": [
    {"smiles": "O=C1N=C2C=CC=CN2C12Cc1ccccc1C2", "note": "[ST101, spiro(imidazo[1,2-a]pyridin-2(3H)-one-3,2′-indan)]", "values": [
      {"measurement": "Morris Water Maze latency during training", "setting": "3xTg-AD mice; 3xTg-AD mice ~1 year old, 5 mg/kg/day in drinking water, successive days of 7-day training, vs controls", "value": "greater reductions in latency"},
      {"measurement": "Morris Water Maze crosses over former platform location, retention testing", "setting": "3xTg-AD mice; 24 hours after final training", "value": "increases in crosses"},
      {"measurement": "Morris Water Maze latency, retention testing", "setting": "3xTg-AD mice; 24 hours after final training", "value": "reductions in latency"},
      {"measurement": "Morris Water Maze crosses over former platform location, retention testing", "setting": "3xTg-AD mice; 72 hours after final training", "value": "increases in crosses"},
      {"measurement": "Morris Water Maze latency, retention testing", "setting": "3xTg-AD mice; 72 hours after final training", "value": "reductions in latency"},
      {"measurement": "AICD fragment (APP intracellular domain)", "setting": "APP [1]; 3xTg-AD mice 12 months old, 2 months, antibody CT-20", "value": "visible in brain extracts from ST101 treated mice (S) but not in control mice (C)"},
      {"measurement": "C83 C-terminal APP fragment", "setting": "APP [1]; [4]", "value": "substantial decrease"},
      {"measurement": "C99 C-terminal APP fragment", "setting": "APP [1]; [4]", "value": "substantial decrease"},
      {"measurement": "full-length APP species, band shift", "setting": "APP [1]; [4]", "value": "slightly lowered molecular weight"},
      {"measurement": "major APP degradation intermediate (~50 kDa)", "setting": "APP [1]; [4]", "value": "disappearance or significant reduction"},
      {"measurement": "novel C-terminal APP fragment of about 17 kDa", "setting": "APP [1]; [4]", "value": "appearance"},
      {"measurement": "17 kDa APP fragment", "setting": "APP [1]; 3xTg-AD mice ~14.5 months old, 2.5 months", "value": "lack of detection"},
      {"measurement": "C99 fragment", "setting": "APP [1]; 3xTg-AD mice ~14.5 months old, 2.5 months, Epitomics C-terminal APP antibody", "value": "reduction"},
      {"measurement": "APP CTFs", "setting": "APP [1]; 3xTg-AD mice ~14.5 months old, 2.5 months, antibody CT20", "value": "significant effect of reduction"},
      {"measurement": "C83 fragment", "setting": "APP [1]; 3xTg-AD mice ~14.5 months old, 2.5 months, compared with 12-month old mice", "value": "not reduced to the same degree"},
      {"measurement": "sAPP-beta", "setting": "sAPP-beta", "value": "concomitant reduction"},
      {"measurement": "C83 APP fragment", "setting": "APP [2]; 10 mg/kg/day", "value": "no differences"},
      {"measurement": "C99 APP fragment", "setting": "APP [2]; 10 mg/kg/day", "value": "no differences"},
      {"measurement": "17-kDa APP fragment", "setting": "APP [2]; 10 mg/kg/day, antibody CT20", "value": "not detected"},
      {"measurement": "C83 APP fragment", "setting": "APP [2]; 30 mg/kg/day", "value": "reductions"},
      {"measurement": "C99 APP fragment", "setting": "APP [2]; 30 mg/kg/day", "value": "reductions"},
      {"measurement": "~55-kDa APP fragment", "setting": "APP [2]; 30 mg/kg/day", "value": "Reductions"},
      {"measurement": "17-kDa APP fragment", "setting": "APP [2]; 30 mg/kg/day, antibody CT20", "value": "not detected"},
      {"measurement": "C83 APP fragment", "setting": "APP [2]; 100 mg/kg/day", "value": "reductions"},
      {"measurement": "C99 APP fragment", "setting": "APP [2]; 100 mg/kg/day", "value": "reductions"},
      {"measurement": "~55-kDa APP fragment", "setting": "APP [2]; 100 mg/kg/day", "value": "Reductions"},
      {"measurement": "17-kDa APP fragment", "setting": "APP [2]; 100 mg/kg/day, antibody CT20, long exposures", "value": "presence"},
      {"measurement": "BACE level", "setting": "BACE", "value": "no differences"},
      {"measurement": "ADAM10 level", "setting": "ADAM10", "value": "no differences"},
      {"measurement": "acetylated alpha-tubulin fragments", "setting": "acetylated alpha-tubulin", "value": "reduction"},
      {"measurement": "accumulation of Aβ-like deposits in brain tissue", "setting": "SAMP8 mouse", "value": "decreased"},
      {"measurement": "learning and memory functions", "setting": "SAMP8 mouse", "value": "improvement"},
      {"measurement": "long-term potentiation (LTP)", "setting": "[3]", "value": "efficacy in increasing long-term potentiation (LTP)"}
    ]}
  ]
}
